Results from US20170342503A1, “XRN2 AS A DETERMINANT OF SENSITIVITY TO DNA DAMAGE” (The Board of Regents of the University of Texas System, priority 2016, published 2017).

Assays:
[1] = system: cells with transient siRNA-mediated loss of XRN2; experiment: Colony forming assay, PARP inhibition with transient siRNA-mediated loss of XRN2; assay type: cell-based; settings: FIG. 8C, p<0.05
Description: FIGS. 8A-C. XRN2 depletion sensitizes cells to genetic knockdown and chemical inhibition of PARP1. […] (FIG. 8B) Loss of XRN2 and PARP1 by transient siRNA knockdown together inhibits cellular growth and survival; black column—shSCR; white column—shXRN2.
shScr and shXRN2 cells were plated onto 60 mm tissue culture plates and allowed to grow for two days. […] Colonies with >50 normal appearing cells were counted and percent survival calculated and graphed with dose.

[2] = system: advanced pancreatic cancer; settings: people with advanced pancreatic cancer; cited from earlier work
[3] = system: XRN2 deficient cells, fibroblast or MDA-MB-231 cells; experiment: Colony forming ability assay in shScr versus shXRN2 cells after genomic insult; assay type: cell-based, human; settings: FIGS. 12E-F
From the text: (FIGS. 12A-D) shScr versus shXRN2 cells (as indicated in the graph) or cells exposed to si-control (siSCR) versus XRN2 specific siRNA (siXRN2) were either mock-treated or exposed to: (FIGS. 12A-B) ionizing radiation (IR); (FIGS. 12C-D) ultraviolet light (UV). (FIGS. 12E-F) shScr and shXRN2, were either mock-treated or exposed to: (FIG. 12E) H2O2 or (FIG. 12F) Aphidicolin (APH). Cells were then monitored for survival using colony forming ability assays. Colonies of >50 normal-appearing cells were quantified for mock-versus agent-exposed cells. (**p<0.01).
shScr and shXRN2 cells were plated onto 60 mm tissue culture plates and allowed to grow for two days. Cells were then exposed to IR and UV (at various doses as indicated), allowed to grow for 7 days, washed with PBS and stained with crystal violet solution. Colonies with >50 normal appearing cells were counted and percent survival calculated and graphed with dose.

fibroblast cells = experiment: Immunofluorescence of XRN2 and R loop (S9.6) foci after UV treatment; assay type: cell-based, human; settings: UV (20 J/m^2) + a-amanitin; FIG. 17D
From the text: FIGS. 10A-D. XRN2 is a DNA damage response (DDR) factor. (FIG. 10A) To interrogate potential in vivo XRN2-interacting partners, exponentially growing HeLa cells were collected and lysed for FPLC analyses. Individual fractions were separated by SDS-PAGE and western blot techniques used to probe for indicated proteins. (FIG. 10B) Interactions between XRN2 and the DNA damage regulators Ku80, 53BP1, and BRCA1 were interrogated by immunoprecipitation (IP). (FIG. 10C) Sub-cellular XRN2 localization was quantitated in shScr and […] cells in mock-, IR (1 Gy), and UV (20 J/m^2) fibroblast cells. (FIG. 10D) Sub-cellular XRN2 localization and S9.6 foci was visualized in mock-, UV (20 J/m^2)-, or UV (20 J/m^2)+a amanitin (a-aman)-treated shScr and shXRN2 fibroblast cells by IF. (*p<0.05).
FIGS. 17A-D. XRN2 undergoes transcription-dependent nuclear re-distribution in response to IR and UV. (FIGS. 17A-D) Sub-cellular localization of XRN2 was monitored in fibroblast cells either after (FIG. 17A) mock, (FIG. 17B) IR (1Gy), (FIG. 17C) UV (20 J/m^2), or (FIG. 17D) UV (20 J/m^2)+a-amanitin treated cells by IF.
To visualize 53BP1, XRN2, and γ-H2AX, cells were plated, grown to ˜70% confluency on glass coverslips and either mock- or IR-treated. […] Visualization was performed using a 100× oil objective lens with fluorescence on a Nikon microscope. For each experiment 100 cells were counted. […]

[4] = system: shXRN2 human fibroblast cells; experiment: Immunofluorescence of basal 53BP1 foci and R loops in shXRN2 versus shScr cells; assay type: cell-based
Description: FIGS. 24A-C. DSBs formed in XRN2 deficient cells are dependent on active transcription and R-loop formation. (FIGS. 24A-B) Levels of 53BP1 were monitored in shXRN2 and compared to shScr human fibroblast cells after exposure to mock-, a-amanitin-, or GFP- or RNaseH-transfection treatments by IF. (FIG. 24C) Levels of R loops or 53BP1 were monitored in mock- or a-amanitin-treated shXRN2 cells by IF.
To visualize 53BP1, XRN2, and γ-H2AX, cells were plated, grown to ˜70% confluency on glass coverslips and either mock- or IR-treated. Cells were then washed once with PBS, permeabilized and fixed in methanol/acetone (70/30, v/v). To visualize ATM pS 1981 and Mre11 cells were fixed in 3% paraformaldehyde/2% sucrose PBS solution for 10 min at room temperature (RT). Fixation was followed by permeabilization on ice with a 0.5% Triton X-100 buffer (0.5% Triton X-100, 20 mM HEPES, pH 7.4, 50 mM NaCl, 3 mM MgCl, and 300 mM sucrose). […] Visualization was performed using a 100× oil objective lens with fluorescence on a Nikon microscope. For each experiment 100 cells were counted.
To determine how transcription and R-loop formation contributed to the DNA damage observed in shXRN2 cells, the inventors treated shScr and shXRN2 cells with a-amanitin or transfected each cell line with GFP control or GFP-RNaseH expression plasmids to remove R-loops and measured the number of 53BP1 foci.

shXRN2 cells = experiment: Regression of 53BP1 foci/nucleus after IR exposure (DNA repair kinetics); assay type: cell-based; settings: IR (1 Gy); treatment prior to IR; FIGS. 15B-C
From the text: FIGS. 15A-C. R loop formation and transcription contribute to delayed DSB repair kinetics in XRN2-deficient cells. (FIG. 15A) Levels of R loops were monitored in mock- or IR (1 Gy)-exposed shXRN2 compared to shScr MDA-MB-231 breast cancer cells by IF. (FIGS. 15B-C) Regression of 53BP1 foci/nucleus was monitored in mock- or IR (1 Gy)-treated shXRN2 compared to shScr cells that were exposed to a-amanitin or GFP- or GFP-RNaseH transfection at the indicated times by IF. (*p<0.05).
To visualize 53BP1, XRN2, and γ-H2AX, cells were plated, grown to ˜70% confluency on glass coverslips and either mock- or IR-treated. […] Visualization was performed using a 100× oil objective lens with fluorescence on a Nikon microscope. For each experiment 100 cells were counted.
Since the loss of XRN2 sensitized cells to IR treatment (FIG. 12A), the inventors examined the effects of IR on R-loop formation in shXRN2 cells. Because R-loops can directly lead to DSBs, they examined whether active transcription or R-loop formation directly affected DNA repair (regression of 53BP1 foci) after IR treatment. shScr or shXRN2 cells were treated or not with a-amanitin or transfected with GFP- or GFP-RNaseH expression plasmids prior to IR exposure and 53BP1 foci/nuclei regression kinetics were assessed at various times after IR exposure.

**Q.** Which “effect of PARP activity inhibition on survival in colony forming assays with loss of XRN2” value [1] does the source give for O=C1NCCc2c(OCCCCN3CCCCC3)cccc21 [DPQ] here?
**A.** The value was “synthetic lethal”.

**Q.** Which “improvement in median survival duration” value [2] does the source give for Nc1ccn([C@@H]2O[C@H](CO)[C@@H](O)C2(F)F)c(=O)n1 [Gemcitabine] here?
**A.** Its value is 5 week.

**Q.** With C[C@@]1(CO)[C@H](O)CC[C@@]2(C)[C@H]1CC[C@H]1C[C@@H]3C[C@@]12CC[C@]3(O)CO [aphidicolin] as the compound, how does the “sensitivity of XRN2 deficient cells (colony forming ability after exposure)” value [3] read?
**A.** The value was “hypersensitive”.

**Q.** With OO [hydrogen peroxide] as the compound, how does the “sensitivity of XRN2 deficient cells (colony forming ability after exposure)” value [3] read?
**A.** Its value is “hypersensitive”.

**Q.** For a-amanitin, which “XRN2 and R loop foci formation after UV treatment” value (fibroblast cells) is on record?
**A.** The value was “failed to form”.

**Q.** What about the “R-loop levels in shXRN2 cells” value ([4]; after a-amanitin treatment, FIG. 24C) of the same compound?
**A.** Its value is “decrease in R-loop levels”.

**Q.** What about the “53BP1 foci in shXRN2 cells” value ([4]; inhibition of transcription, to levels comparable to shScr cells, FIGS. 24A-B) of the same compound?
**A.** Its value is “decreased 53BP1 foci”.

**Q.** What about the “DNA repair kinetics (regression of 53BP1 foci) after IR exposure in shXRN2 cells” value (shXRN2 cells) of the same compound?
**A.** The value was “completely restored DNA repair kinetics”.
